Data from the supplement of paper PMC10307832.

Columns and labels:
Test in all cases: relative viability (nuclei count vs DMSO), 5 days (fraction); higher = more cells survive
[1] = compound: O=C(C[C@H]1NCCC[C@@H]1O)Cn1cnc2cc(Br)c(Cl)cc2c1=O (racemic) [Halofuginone] + CCNC(=O)c1noc(-c2cc(C(C)C)c(O)cc2O)c1-c1ccc(CN2CCOCC2)cc1 [Luminespib] (partner 0.01 µM)
Summary of the method: (§1)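 Lung cancer cell lines were seeded in 1536-well plates and dosed by pin tool the next day, with either a single drug or a fixed anchor-drug dose combined with five library-drug doses (not always all listed) spaced in √10 steps. Five days later, one step fixed the cells and stained their nuclei (final 0.05% Triton X-100, 1% formaldehyde, 1 ug/ml Hoechst), and nuclei were counted on 4× images. Relative viability is the nuclei count in treated wells divided by the count in vehicle wells, and each value is the median of duplicate plates.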

[2] = compound: O=C(C[C@H]1NCCC[C@@H]1O)Cn1cnc2cc(Br)c(Cl)cc2c1=O (racemic) [Halofuginone] + C[C@@H](Oc1cc(-c2cnn(C3CCNCC3)c2)cnc1N)c1c(Cl)ccc(F)c1Cl [Crizotinib] (partner 1 µM)
Summary of the method: as §1

Halofuginone + Dasatinib = compound: O=C(C[C@H]1NCCC[C@@H]1O)Cn1cnc2cc(Br)c(Cl)cc2c1=O (racemic) [Halofuginone] + Cc1nc(Nc2ncc(C(=O)Nc3c(C)cccc3Cl)s2)cc(N2CCN(CCO)CC2)n1 [Dasatinib] (partner 0.075 µM)
Summary of the method: as §1

Decitabine + AZD7762 = compound: Nc1ncn([C@H]2C[C@H](O)[C@@H](CO)O2)c(=O)n1 [Decitabine] + NC(=O)Nc1cc(-c2cccc(F)c2)sc1C(=O)N[C@H]1CCCNC1 [AZD7762] (partner 0.2 µM)
Summary of the method: as §1

Cell Line | relative viability ([1]; first compound 0.001 µM) | relative viability ([1]; first compound 0.003162 µM) | relative viability ([1]; first compound 0.01 µM) | relative viability ([1]; first compound 0.03162 µM) | relative viability ([1]; first compound 0.1 µM) | relative viability ([2]; first compound 0.001 µM) | relative viability ([2]; first compound 0.003162 µM) | relative viability ([2]; first compound 0.01 µM) | relative viability ([2]; first compound 0.03162 µM) | relative viability ([2]; first compound 0.1 µM) | relative viability (Halofuginone + Dasatinib; first compound 0.001 µM) | relative viability (Halofuginone + Dasatinib; first compound 0.003162 µM) | relative viability (Halofuginone + Dasatinib; first compound 0.01 µM) | relative viability (Halofuginone + Dasatinib; first compound 0.03162 µM) | relative viability (Halofuginone + Dasatinib; first compound 0.1 µM) | relative viability (Decitabine + AZD7762; first compound 0.04 µM) | relative viability (Decitabine + AZD7762; first compound 0.1265 µM) | relative viability (Decitabine + AZD7762; first compound 0.4 µM) | relative viability (Decitabine + AZD7762; first compound 1.265 µM) | relative viability (Decitabine + AZD7762; first compound 4 µM)
COR-L 105 | 0.668 | 0.606 | 0.694 | 0.639 | 0.532 | 1.01 | 0.853 | 0.722 | 0.718 | 0.515 | 0.387 | 0.353 | 0.316 | 0.257 | 0.234 | – | – | – | – | –
NCI-H520 | 0.232 | 0.241 | 0.185 | 0.206 | 0.236 | 0.764 | 0.808 | 0.749 | 0.693 | 0.316 | 0.215 | 0.173 | 0.175 | 0.16 | 0.17 | – | – | – | – | –
NCI-H522 | 1.14 | 1.81 | 1.12 | 1.28 | 1.09 | – | – | – | – | – | 0.894 | 0.863 | 1.06 | 0.806 | 0.881 | 0.819 | 0.692 | 0.571 | 0.567 | 0.591
NCI-H1563 | 0.487 | 0.493 | 0.547 | 0.534 | 0.467 | 0.868 | 0.835 | 0.891 | 0.555 | 0.452 | 0.477 | 0.432 | 0.418 | 0.487 | 0.408 | – | – | – | – | –
NCI-H1703 | – | – | – | – | – | 1.04 | 0.583 | 0.538 | 0.592 | 0.28 | – | – | – | – | – | 0.111 | 0.0883 | 0.132 | 0.152 | 0.102
NCI-H661 | 0.83 | 0.953 | 0.88 | 0.696 | 0.504 | 1.1 | – | 0.911 | 0.921 | 0.893 | 0.954 | 0.884 | 0.856 | 0.79 | 0.378 | – | – | – | – | –
SK-MES-1 | 0.842 | 0.704 | 0.756 | 0.284 | 0.164 | 1.02 | 1.01 | 0.863 | 0.778 | 0.302 | 0.38 | 0.429 | 0.446 | 0.283 | 0.117 | – | – | – | – | –
HCC-78 | – | – | – | – | – | 0.396 | 0.356 | 0.314 | 0.341 | 0.237 | 0.44 | 0.364 | 0.357 | 0.4 | 0.503 | 0.549 | 0.605 | 0.565 | 0.474 | 0.466
NCI-H1648 | – | – | – | – | – | – | – | – | – | – | – | – | – | – | – | 0.692 | 0.672 | 0.469 | 0.448 | 0.428
EBC-1 | – | – | – | – | – | 0.186 | 0.202 | 0.188 | 0.223 | 0.2 | – | – | – | – | – | – | – | – | – | –
NCI-H1650 | 0.188 | 0.217 | 0.193 | 0.204 | 0.235 | 1.05 | 1.05 | 0.951 | 0.823 | 0.59 | 0.339 | 0.329 | 0.293 | 0.2 | 0.166 | – | – | – | – | –
NCI-H1395 | 0.826 | 0.655 | 0.626 | 0.656 | 0.642 | – | – | – | – | – | 0.425 | 0.469 | 0.426 | 0.364 | 0.366 | 0.379 | 0.39 | 0.446 | 0.391 | 0.348
SW 1573 | 0.507 | 0.152 | 0.265 | 0.113 | 0.0969 | 1.03 | 0.915 | 0.803 | 0.574 | 0.195 | 0.576 | 0.579 | 0.481 | 0.241 | 0.0881 | – | – | – | – | –
NCI-H1299 | – | – | – | – | – | 1.03 | 1.01 | 0.959 | 0.873 | 0.397 | – | – | – | – | – | – | – | – | – | –
SK-LU-1 | 0.202 | 0.196 | 0.23 | 0.219 | 0.174 | 1.25 | 0.978 | 0.836 | 0.927 | 0.325 | 0.204 | 0.211 | 0.198 | 0.183 | 0.137 | – | – | – | – | –
COR-L23 | 0.819 | 0.636 | 0.699 | 0.368 | 0.211 | 0.822 | 0.78 | 0.624 | 0.62 | 0.0779 | 0.617 | 0.481 | 0.535 | 0.311 | 0.083 | – | – | – | – | –
A549 | – | – | – | – | – | 0.824 | 0.75 | 0.611 | 0.338 | 0.0443 | – | – | – | – | – | – | – | – | – | –
NCI-H2023 | 0.849 | 0.699 | 0.529 | 0.148 | 0.0557 | 0.847 | 0.649 | 0.701 | 0.493 | 0.0689 | 0.649 | 0.609 | 0.507 | 0.241 | 0.0614 | – | – | – | – | –
NCI-H1793 | 0.181 | 0.191 | 0.172 | 0.211 | 0.161 | – | – | – | – | – | 0.374 | 0.37 | 0.418 | 0.468 | 0.296 | 0.37 | 0.591 | 0.258 | 0.154 | 0.169
IA-LM | – | – | – | – | – | 0.845 | 0.899 | 0.768 | 0.384 | 0.0479 | – | – | – | – | – | – | – | – | – | –
NCI-H2009 | 1.07 | 1.04 | 1.03 | 0.904 | 0.692 | 1.15 | 1.09 | 1.06 | 0.923 | 0.668 | 0.313 | 0.385 | 0.289 | 0.216 | 0.151 | – | – | – | – | –
